According to ChEMBL document CHEMBL1201862, “PubChem BioAssay data set” (2004):
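Growth conditions: 96-well plates. Treatment: test compound, 48 hours, 5 concentrations. Analysis: linear interpolation between bracketing concentrations; unreached endpoints set to highest concentration. GI50: concentration for 50% inhibition of growth.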 Activity calls are given as the source filed them. Cut-off read from the data, not from the text of the source: active = GI50 up to about 1.1 µM and inactive = higher.

Columns and labels:
Assay in all cases: NCI-60 cell line screen, 48 h
[1] = test system: LOX IMVI
[2] = test system: SK-MEL-5
[3] = test system: COLO 205
[4] = test system: DU-145
[5] = test system: SN12C
[6] = test system: NCI-H23
[7] = test system: PC-3
[8] = test system: 786-0
[9] = test system: K562
[10] = test system: SNB-75
[11] = test system: RXF 393
[12] = test system: UO-31
[13] = test system: OVCAR-3
[14] = test system: SF-295
[15] = test system: HL-60
[16] = test system: EKVX
[17] = test system: HOP-62
[18] = test system: KM12
[19] = test system: SNB-19

Measured: GI50

CS(=O)(=O)Nc1ccc2c(c1)N(S(C)(=O)=O)CC2CCl (stereo unspecified)
inactive: [1] > 100 µM | [2] > 100 µM | [3] > 100 µM | [4] > 100 µM | [5] > 100 µM | [6] > 100 µM | [7] > 100 µM | [8] > 100 µM | [9] > 100 µM | [10] > 100 µM | [11] > 100 µM | [12] > 100 µM | [13] > 100 µM | [14] > 100 µM | [15] > 100 µM | [16] > 100 µM | [17] > 100 µM | [18] > 100 µM

CCOc1ccc(/C=C2\N=C(c3ccc([N+](=O)[O-])cc3)OC2=O)cc1
inactive: [1] > 100 µM | [2] > 100 µM | [3] > 100 µM | [4] > 100 µM | [5] > 100 µM | [6] > 100 µM | [7] > 100 µM | [8] > 100 µM | [9] > 100 µM | [10] > 100 µM | [11] > 100 µM | [13] > 100 µM | [14] > 100 µM | [15] > 100 µM | [19] > 100 µM | [16] > 100 µM | [17] > 100 µM | [18] > 100 µM

CCOP(=O)(OCC)C(C)(C)OC(=O)NC(F)(F)F
inactive: [1] > 100 µM | [2] > 100 µM | [3] > 100 µM | [4] > 100 µM | [5] > 100 µM | [6] > 100 µM | [7] > 100 µM | [8] > 100 µM | [9] > 100 µM | [10] > 100 µM | [11] > 100 µM | [12] > 100 µM | [13] > 100 µM | [14] > 100 µM | [15] > 100 µM | [19] > 100 µM | [16] > 100 µM | [17] > 100 µM | [18] > 100 µM

Cc1cc(C)c(C[C@H]2COC(=O)[C@]2(O)Cc2c(C)cc(C)cc2C)c(C)c1
inactive: [1] 17.8 µM | [2] 17 µM | [3] 18.7 µM | [4] 15.2 µM | [5] 19.4 µM | [6] 21 µM | [7] 15.1 µM | [8] 20.8 µM | [9] 25.2 µM | [10] 19.4 µM | [11] 11.2 µM | [12] 19.6 µM | [13] 15 µM | [14] 16.9 µM | [15] 14.7 µM | [19] 21.6 µM | [16] 12.6 µM | [17] 19.2 µM | [18] 18.3 µM

O=C1CSC(c2cccs2)N1c1nc2cc3sc(N4C(=O)CSC4c4cccs4)nc3cc2s1 (stereo unspecified)
inactive: [1] 29.5 µM | [2] 22.5 µM | [3] 1.21 µM | [4] > 50 µM | [5] 26.4 µM | [6] 28.8 µM | [7] 47.9 µM | [8] > 50 µM | [9] 34.5 µM | [10] > 50 µM | [11] > 50 µM | [12] 30.9 µM | [13] > 50 µM | [14] > 50 µM | [15] > 50 µM | [19] > 50 µM | [16] 16 µM | [17] > 50 µM | [18] > 50 µM

CC1(C)CC(=O)C2=C(C1)OC1(CC2c2ccc(Cl)cc2)CC(c2ccc(Cl)cc2)C2=C(CC(C)(C)CC2=O)O1 (stereo unspecified)
inactive: [1] 20.4 µM | [2] 14.8 µM | [3] 16 µM | [4] 19.6 µM | [5] 36.7 µM | [6] 16.3 µM | [7] 18.2 µM | [8] 15.7 µM | [9] 8.18 µM | [10] 17.5 µM | [11] 26.1 µM | [12] 13.6 µM | [13] 3.44 µM | [14] 22.2 µM | [15] 3.58 µM | [19] 18.8 µM | [16] 16.1 µM | [17] 15.6 µM | [18] 16.7 µM

O=c1ccn([C@@H]2C[C@H]2CO)c(=O)[nH]1
inactive: [1] > 100 µM | [2] > 100 µM | [3] > 100 µM | [4] > 100 µM | [5] > 100 µM | [6] > 100 µM | [7] > 100 µM | [8] > 100 µM | [9] > 100 µM | [10] > 100 µM | [11] > 100 µM | [12] > 100 µM | [15] > 100 µM | [19] > 100 µM | [16] > 100 µM | [17] > 100 µM | [18] > 100 µM

CN1C(=O)C(O)C[C@@H]1c1ccccc1 (stereo partly specified)
inactive: [1] > 100 µM | [2] > 100 µM | [3] > 100 µM | [4] > 100 µM | [5] > 100 µM | [6] > 100 µM | [7] > 100 µM | [8] > 100 µM | [10] > 100 µM | [11] > 100 µM | [12] > 100 µM | [13] > 100 µM | [14] > 100 µM | [15] > 100 µM | [19] > 100 µM | [16] > 100 µM | [17] > 100 µM | [18] > 100 µM

CN(C)CC/C=C1\c2ccccc2Sc2ccc(Cl)cc21
inactive: [1] 13.8 µM | [2] 14 µM | [3] 14.2 µM | [4] 15.4 µM | [5] 15.2 µM | [6] 15.6 µM | [7] 12.8 µM | [8] 12.2 µM | [9] 5.16 µM | [10] 12.3 µM | [11] 12.5 µM | [12] 9.4 µM | [13] 13.4 µM | [14] 15.9 µM | [15] 11.2 µM | [19] 15.5 µM | [16] 10.1 µM | [17] 14.4 µM | [18] 21 µM

O=c1nc(N2CCNCC2)oc2cc(Cl)oc(=O)c12
inactive: [1] 2.06 µM | [2] 3.14 µM | [3] 2.9 µM | [4] 5.5 µM | [5] 6.11 µM | [6] 7.24 µM | [7] 6.49 µM | [8] 3.34 µM | [9] 2.55 µM | [10] 3.7 µM | [11] 9.1 µM | [12] 7.67 µM | [13] 4.06 µM | [14] 7.13 µM | [15] 1.9 µM | [19] 15.4 µM | [16] 6.28 µM | [17] 4.69 µM | [18] 5.96 µM

O=C(Nc1cccc(-c2cn3ccccc3n2)c1)c1ccncc1
inactive: [1] 38.3 µM | [2] 24.3 µM | [3] 31.3 µM | [4] 49.4 µM | [5] 32.7 µM | [6] 23.6 µM | [7] 35.9 µM | [8] 64.4 µM | [9] 24.6 µM | [10] 46.1 µM | [11] 64.4 µM | [12] 43.1 µM | [13] 35.1 µM | [14] 40.7 µM | [15] 20.1 µM | [19] 99.3 µM | [16] 60.1 µM | [17] 33.2 µM | [18] 32.6 µM

CCOC(=O)C(=CNc1ccc(F)c(F)c1)C(=O)OCC
inactive: [1] > 100 µM | [2] > 100 µM | [3] > 100 µM | [4] > 100 µM | [5] > 100 µM | [6] > 100 µM | [7] 67.6 µM | [8] > 100 µM | [9] 39.4 µM | [10] > 100 µM | [11] > 100 µM | [12] 55.3 µM | [13] > 100 µM | [15] 66.1 µM | [19] > 100 µM | [16] 81.5 µM | [17] > 100 µM | [18] > 100 µM

C[C@@H](CCO)OC1OC(COC(=O)C(C)(C)C)C(OC(=O)C(C)(C)C)C(OC(=O)C(C)(C)C)C1OC(=O)C(C)(C)C (stereo partly specified)
inactive: [1] 51.4 µM | [2] 4.97 µM | [3] > 100 µM | [4] > 100 µM | [5] 22.1 µM | [6] > 100 µM | [7] 22.2 µM | [8] 39.5 µM | [9] 89.7 µM | [10] 32.1 µM | [11] 7.46 µM | [13] 86.7 µM | [14] 4.13 µM | [15] 5.89 µM | [19] 12.6 µM | [16] 48.4 µM | [17] 85.5 µM | [18] > 10 µM

Cc1cccc2[nH]c3c(c(O)cc4[nH]c5cccc(C)c5c(=O)c43)c(=O)c12
inactive: [1] 3.65 µM | [2] 9.04 µM | [3] 3.84 µM | [4] 5.98 µM | [5] 4.97 µM | [6] 3 µM | [7] 4.06 µM | [8] 2.99 µM | [9] 4.02 µM | [10] > 10 µM | [11] 7 µM | [13] 6 µM | [14] 7.53 µM | [15] 3.33 µM | [19] > 10 µM | [16] 6.53 µM | [17] > 10 µM | [18] 6.87 µM

Nc1nccc(NCC2(CO)CC(OCc3ccccc3)C2)n1 (stereo unspecified)
inactive: [1] > 100 µM | [2] 35.8 µM | [3] 99.1 µM | [4] 79.4 µM | [5] > 100 µM | [6] > 100 µM | [7] > 100 µM | [8] > 100 µM | [9] 79.1 µM | [10] > 100 µM | [11] > 100 µM | [12] 84.5 µM | [13] 87.5 µM | [14] > 100 µM | [15] > 100 µM | [16] 77.4 µM | [17] > 100 µM | [18] > 100 µM
